# Assay results: patent publication US12616203B2, “Use of 3-isoxazolidinones compounds as selective herbicides” (FMC Corporation, priority 2014, dated 2026)
# Entries after “also recorded” stand apart in the source; their conditions may differ.
# Experiments:
# [1] = tested on: weeds; corn, wheat, cotton, cowpea, and bush bean; assay: Ex42 PRE greenhouse; format: in vivo; settings: crop and rate in the words
# Text: Thereafter flats were watered and fertilized routinely.
# weeds; Sugarcane (CTC20) = assay: Ex23 PRE greenhouse; settings: 28 DAT, weed and rate in the words
# Pennsylvania smartweed = assay: Ex33 PRE 2,4-DC + fluthiacet-methyl + pyroxasulfone, % control 28 DAT, Colby; format: in vivo, Polygonum pensylvanicum
# Text: ANTHEM® (fluthiacet-methyl, 0.69% plus pyroxasulfone, 22.61%) was included as a standard at labeled rate, Fluthiacet-methyl at 4.9 g ai/ha and pyroxasulfone at 165 g ai/ha. […] The following weeds were screened, Palmer amaranth, Pennsylvania smartweed, velvetleaf, green foxtail, morningglory, Italian ryegrass, prickly sida, and yellow nutsedge. Crops screened were cotton, lentil, mung bean, bush bean, and cowpea. […] Thereafter flats were watered and fertilized routinely.
# [2] = tested on: weeds; corn, sweet corn, and sorghum; assay: Ex37 PRE greenhouse; format: in vivo; settings: weed and rate in the words
# Text: (§1) S-metolachlor (DUAL II MAGNUM®, 82.4%) at 525 g ai/h plus atrazine at 560 g ai/h was included as a standard for comparison. […] Thereafter flats were watered and fertilized routinely.
# Velvetleaf = assay: Ex37 PRE 2,4-DC + atrazine, % control 28 DAT, Colby; format: in vivo, Abutilon theophrasti
# Text: as §1
# [3] = tested on: weeds; sweet corn, yellow corn, and sorghum; assay: Ex31 PRE greenhouse; format: in vivo; settings: weed and rate in the words
# Text: Flats were watered and fertilized routinely after treatment application.
# Yellow nutsedge = assay: Ex39 PRE 2,4-DC + pyroxasulfone + carfentrazone, % control 28 DAT, Colby
# Wild mustard = assay: Ex35 PRE 2,4-DC + dimethachlor + napropamide, % control 28 DAT, Colby; format: in vivo, Sinapis arvensis
# Text: Crops screened were wheat and canola.
# Sorghum = assay: Ex46 PRE sorghum injury 7, 14, 21, 28 DAT; settings: rate in the words
# Description: Treatments were applied to sorghum at the time of planting using Pennington soil. Each treatment was replicated four times. Soil was watered before and after application for herbicide activation. Plants were watered and fertilized routinely. […] Visual percent crop injury was recorded at 7, 14, 21, and 28 days after treatment using a scale of 0 (no injury) to 100 (complete plant death).
# Italian ryegrass (IR) = assay: Ex2 PRE greenhouse, % control; format: in vivo, Lolium perenne. multiflorum; settings: 28 DAT, g ai/ha by row: r12-40 2,4-DC 31.25/62.5/125/250/375 (3 rows each) + metazachlor 250/500/750 (cycling)
# Description: Test compositions containing 2,4 DC Example 1B and metazachlor (Butisan® S, 43.1% active ingredient, BASF) and mixtures of 2-(2,4-dichlorophenyl)methyl-4,4-dimethyl-3-isoxazolidinone and metazachlor, were diluted with water to provide the appropriate test rate concentrations.
# The test crops were wheat and canola (Brassica napus), the test weeds were Italian ryegrass (IR) (Lolium perenne. multiflorum), annual bluegrass (AB) (Poa annua), common lambsquarters (CL) (Chenopodium album), littleseed canarygrass (LC) (Phalaris minor), common chickweed (CC) (Stellaria media), and corn poppy (CP) (Papaver rhoeas).
# For pre-emergence testing, four disposable fiber flats (6″ by 10″) for each rate of application of each herbicide solution were filled with top soil, to which seeds of each species were planted in furrows made by a template pressed on the top of the soil. The furrows were covered with soil after planting the seed and were watered well before application of the test compounds.
# Fiber flats designated for treatment were placed in a spray chamber having a static platform and a movable sprayer and height of the spray nozzle was 10.5 inches above the soil level. Once the sprayer was calibrated using water for spray volume of 30 gallons per acre, flats were sprayed with sprayer at a speed to receive a coverage equivalent of 30 gallons per acre. The application rates are those shown in Table 1 below for the individual herbicidal solutions and the herbicide compositions of the present invention. The pre-emergence flats were immediately placed in the greenhouse and watered lightly after treatment. Thereafter they were regularly watered and fertilized for the duration of the test.
# The control of weeds was evaluated in each experimental test at 21 days after treatment (DAT) for corn poppy and wheat and 28 DAT for all other species. The results, shown as an average of the replications were compared with results observed in untreated control flats in the same tests.
# Percent control was determined by a method similar to the 0 to 100 rating system disclosed in “Research Methods in Weed Science,” 2nd ed., B. Truelove, Ed.; Southern Weed Science Society; Auburn University, Auburn, Ala., 1977.
# Wild oat = assay: Ex32 PRE 2,4-DC + pyroxasulfone + sulfentrazone, % control 28 DAT, Colby; format: in vivo, Avena fatua
# Text: (§2) Treatments were applied at the time of planting to Italian ryegrass, green foxtail, littleseed canarygrass, wild oat, quackgrass, dandelion, common chickweed, white clover, yellow nutsedge, redroot pigweed, field bindweed, canola, and wheat. […] Flats were watered and fertilized routinely after treatment application.
# weeds; canola, and wheat = assay: Ex32 PRE greenhouse; format: in vivo; settings: rate in the words
# Text: as §2
# Common lambsquarters = assay: Ex13 PRE 2,4-DC + diflufenican, % control 28 DAT, Colby; format: in vivo, Chenopodium album
# Text: Pyroxasulfone (KIH-485, 85%) at 74.3 g ai/ha, pendimethalin (Prowl 3.3EC, 37.4%) at 1200 g ai/ha, or a premix of chlorsulfuron plus metsulfuron-methyl (Report Extra, 75%) at 15.8 g ai/ha were applied as commercial standards. […] Treatments were replicated 3 times and flats were watered after planting before the treatment and lightly watered after treatment application. Thereafter flats were watered and fertilized routinely.
compound,measurement,setting,value
"CC1(C)CON(Cc2ccc(Cl)cc2Cl)C1=O [2,4-DC, 2-(2,4-dichlorophenyl)methyl-4,4-dimethyl-3-isoxazolidinone]",crop safety in words,[1],applied alone was safe at all rates on all crops at 14 DAT
same,weed control in words,weeds; Sugarcane (CTC20),applied alone at ≥500 g ai/ha controlled (≥85% injury) large crabgrass and redroot pigweed
same,X,"Pennsylvania smartweed; 2,4-DC alone 31 g ai/ha",10%
same,X,"Pennsylvania smartweed; 2,4-DC alone 63 g ai/ha",23%
same,X,"Pennsylvania smartweed; 2,4-DC alone 125 g ai/ha",57%
same,X,"Pennsylvania smartweed; 2,4-DC alone 250 g ai/ha",100%
same,X,"Pennsylvania smartweed; 2,4-DC alone 375 g ai/ha",99%
same,weed control in words,[2],applied alone at ≥50 g ai/ha controlled barnyardgrass 28 DAT; also recorded: applied alone at ≥200 g controlled velvetleaf and redroot pigweed
same,"X (% control, 2,4-DC alone)","Velvetleaf; PRE, 2,4-DC 50 g ai/ha",18%
same,"X (% control, 2,4-DC alone)","Velvetleaf; PRE, 2,4-DC 100 g ai/ha",19%
same,"X (% control, 2,4-DC alone)","Velvetleaf; PRE, 2,4-DC 200 g ai/ha",90%
same,weed control in words,[3],alone did not control any weeds except barnyardgrass
same,"X (% control, 2,4-DC alone)","Yellow nutsedge; PRE, 2,4-DC 50 g ai/ha",1%
same,"X (% control, 2,4-DC alone)","Yellow nutsedge; PRE, 2,4-DC 100 g ai/ha",3%
same,"X (% control, 2,4-DC alone)","Yellow nutsedge; PRE, 2,4-DC 200 g ai/ha",3%
same,X,"Wild mustard; 2,4-DC alone 50 g ai/ha",12%
same,X,"Wild mustard; 2,4-DC alone 100 g ai/ha",37%
same,X,"Wild mustard; 2,4-DC alone 200 g ai/ha",47%
same,sorghum safety in words,Sorghum,safe on sorghum at rates ranging from 31 to 125 g ai/ha irrespective of rating timings
same,% Control IR,"Italian ryegrass (IR); r42-46 2,4-DC 31.25/62.5/125/250/375, r47-49 metazachlor 250/500/750, 31.25 g ai/ha",57%
same,% Control IR,"Italian ryegrass (IR); r42-46 2,4-DC 31.25/62.5/125/250/375, r47-49 metazachlor 250/500/750, 62.5 g ai/ha",68%
same,% Control IR,"Italian ryegrass (IR); r42-46 2,4-DC 31.25/62.5/125/250/375, r47-49 metazachlor 250/500/750, 125 g ai/ha",85%
same,% Control IR,"Italian ryegrass (IR); r42-46 2,4-DC 31.25/62.5/125/250/375, r47-49 metazachlor 250/500/750, 250 g ai/ha",98%
same,% Control IR,"Italian ryegrass (IR); r42-46 2,4-DC 31.25/62.5/125/250/375, r47-49 metazachlor 250/500/750, 375 g ai/ha",99%
same,X,"Wild oat; 2,4-DC alone 50 g ai/ha",28%
same,X,"Wild oat; 2,4-DC alone 100 g ai/ha",28%
same,X,"Wild oat; 2,4-DC alone 200 g ai/ha",67%
same,weed control / crop safety in words,"weeds; canola, and wheat",alone controlled Italian ryegrass and wild oat at 400 g; common chickweed was controlled at all rates; green foxtail was controlled at ≥100 g; littleseed canarygrass and redroot pigweed were controlled at 200 g
same,X,"Common lambsquarters; 2,4-DC alone 125 g ai/ha",15%
same,X,"Common lambsquarters; 2,4-DC alone 170 g ai/ha",26%
same,X,"Common lambsquarters; 2,4-DC alone 210 g ai/ha",58%
same,X,"Common lambsquarters; 2,4-DC alone 250 g ai/ha",60%
